Results reported in patent US11578074B2, “Nitrogenous heterocyclic compound, preparation method, intermediate, composition, and application” (SHANGHAI PHARMACEUTICALS HOLDING CO., LTD., priority 2017, dated 2023).
Where two headings read alike, the source gives them in different places.

Experiments:
CYP2D6 = target: T1, CYP2D6 (Homo sapiens, UniProt P10635); assay: Direct inhibition (DI) of CYP2D6 in human liver microsomes; type: in vitro ADME; conditions: probe Dextromethorphan, human liver microsomes 0.2 mg/mL, 10 μM compound, read-out: Direct inhibition (DI) 2D6 (Dextromethorphan)
T1 construct: A system of 100 μL human liver microsomes; from tissue; host or cells: human liver microsomes
T1 sequence (P10635 whole entry): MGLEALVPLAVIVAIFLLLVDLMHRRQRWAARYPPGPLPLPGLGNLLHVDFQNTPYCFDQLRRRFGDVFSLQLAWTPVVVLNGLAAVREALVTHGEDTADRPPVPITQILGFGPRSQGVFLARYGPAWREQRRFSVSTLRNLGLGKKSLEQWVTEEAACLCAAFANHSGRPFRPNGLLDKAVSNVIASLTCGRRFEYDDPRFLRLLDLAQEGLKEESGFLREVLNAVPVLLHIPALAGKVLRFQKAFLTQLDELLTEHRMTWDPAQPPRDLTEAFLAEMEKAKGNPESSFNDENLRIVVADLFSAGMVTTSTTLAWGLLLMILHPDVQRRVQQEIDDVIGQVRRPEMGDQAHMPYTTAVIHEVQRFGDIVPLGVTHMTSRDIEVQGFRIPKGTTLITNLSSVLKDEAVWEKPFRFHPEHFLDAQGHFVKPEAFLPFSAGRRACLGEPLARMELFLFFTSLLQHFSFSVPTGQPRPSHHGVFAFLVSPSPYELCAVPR
Procedure: (§1) Study on Direct Inhibition (DI) of CYP3A4, CYP2D6, CYP2C9, CYP2C19, CYP1A2
(§2) A system of 100 μL human liver microsomes (final concentration: 0.2 mg/mL) was used for direct inhibition under warm incubation. The system contained NADPH (final concentration: 1 mM), 10 μM compound, a positive inhibitor cocktail (Ketoconazole 10 μM, Quinidine: 10 μM, Sulfaphenazole: 100 μM, Naphthoflavone: 10 μM, Tranylcypromene 1000 μM), a negative control 10 μM DMSO and mixed probe substrates (Midazolam 10 μM, Testosterone 100 μM, Dextromethophan 10 μM, Diclofenac 20 μM, Phenetin 100 μM, Mephenytoin 100 μM). The reaction was terminated after incubation for 20 minutes. The relative activity of the enzymes was calculated by measuring the relative production of metabolites.

ErbB2 kinase = target: T2, ErbB2 kinase (Homo sapiens, UniProt P04626); assay: EGFR/ErbB2 enzymatic experiment (HTRF kinEASE-TK), ErbB2; type: biochemical; conditions: ErbB2 kinase 0.06 ng/μL, ATP 4 μM; read-out: Kinase IC50 (nM) in vitro ErbB2
T2 construct: The final concentration of ErbB2 kinase was 0.06 ng/μL
T2 sequence (P04626 23-1255): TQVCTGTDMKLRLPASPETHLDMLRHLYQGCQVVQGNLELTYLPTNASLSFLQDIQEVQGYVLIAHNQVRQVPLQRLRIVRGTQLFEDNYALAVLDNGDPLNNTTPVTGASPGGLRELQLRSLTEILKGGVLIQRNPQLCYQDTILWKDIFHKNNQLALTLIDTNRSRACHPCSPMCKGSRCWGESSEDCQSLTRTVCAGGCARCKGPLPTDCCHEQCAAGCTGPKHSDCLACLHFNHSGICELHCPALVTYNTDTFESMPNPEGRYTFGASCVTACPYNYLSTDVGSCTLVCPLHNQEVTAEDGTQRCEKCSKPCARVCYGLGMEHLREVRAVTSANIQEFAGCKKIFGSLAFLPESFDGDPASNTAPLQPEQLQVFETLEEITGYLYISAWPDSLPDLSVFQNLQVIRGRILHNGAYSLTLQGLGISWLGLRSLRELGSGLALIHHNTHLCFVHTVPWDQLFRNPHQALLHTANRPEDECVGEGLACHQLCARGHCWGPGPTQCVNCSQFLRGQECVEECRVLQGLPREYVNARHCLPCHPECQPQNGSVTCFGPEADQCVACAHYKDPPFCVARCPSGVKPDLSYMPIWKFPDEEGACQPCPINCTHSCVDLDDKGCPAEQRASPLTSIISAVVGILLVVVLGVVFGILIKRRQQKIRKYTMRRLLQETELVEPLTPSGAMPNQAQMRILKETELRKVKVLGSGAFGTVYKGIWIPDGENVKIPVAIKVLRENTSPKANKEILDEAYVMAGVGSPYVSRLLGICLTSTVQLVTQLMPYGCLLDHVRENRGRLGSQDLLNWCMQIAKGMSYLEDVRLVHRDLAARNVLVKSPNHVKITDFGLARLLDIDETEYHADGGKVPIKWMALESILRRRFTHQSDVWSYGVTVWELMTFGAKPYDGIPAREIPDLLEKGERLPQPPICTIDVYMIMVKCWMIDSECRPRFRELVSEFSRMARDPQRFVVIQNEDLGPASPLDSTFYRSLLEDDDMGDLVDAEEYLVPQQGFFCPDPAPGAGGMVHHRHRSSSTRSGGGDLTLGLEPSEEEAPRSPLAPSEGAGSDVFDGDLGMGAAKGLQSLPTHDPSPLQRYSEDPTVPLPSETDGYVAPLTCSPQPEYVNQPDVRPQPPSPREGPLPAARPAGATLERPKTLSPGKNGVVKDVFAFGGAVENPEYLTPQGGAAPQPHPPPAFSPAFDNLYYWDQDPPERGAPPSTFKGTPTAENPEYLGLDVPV
Procedure: (§3) EGFR/ErbB2 Enzymatic Experiment
(§4) Firstly, 1× reaction buffer required for the kinase was prepared, then 5× Enzymatic buffer (HEPES 20 mM pH 7.0, NaN3 0.1%, BSA 0.05%, sodium orthovanadate 0.5 mM) was diluted in HTRF kinEASE-TK kit by 1 time with deionized water, and 50 nM Supplement Enzymatic buffer (SEB REAGENT), 1 mM MnCl2, 5 mM MfCl2, 1 mM DTT were added. Secondly, 5× compound was prepared, and 10 mM test compound storage solution was diluted in multiple steps with DMSO in a 96-well compound plate to prepare 100× compound as an initial concentration, which was then used as the first concentration to carry out a 3-fold gradient dilution with DMSO to obtain a total of 10 concentrations. Then 1 μL of gradient diluent was added to 19 μL of 1× reaction buffer to prepare 5× compound for later use. Then 2 μL of 5× compound was transferred from the 96-well plate into a 384-well plate. To the compound-free control wells was added 2 μL of the following liquid: 19 μL of 1× reaction buffer with addition of 1 μL of DMSO. To the blank control well was added 2 μL of 250 mM EDTA. […] In the fourth step of reaction termination, HTRF Detection buffer was used to prepare a mixture of 2×TK Antibody-EU (K) and Sa-XL665, and the amount of TK Antibody-EU (K) was 5 μL per well. After the enzyme reaction was carried out for 30 minutes, 10 μL of the above liquid was added to a 384-well plate, and the reaction was carried out at room temperature for 1 hour. […] RFU665 nM and RFU620 nM were measured, and RFU665 nM/RFU620 nM×10000 was used as final data for analysis.

[1] = test system: BT-474 (human breast cancer cell); assay: In vitro proliferation inhibition assay of cell lines (CellTiter-Glo), BT-474; type: cell-based; conditions: BT-474 cells, 72 hours
Procedure: (§5) In Vitro Proliferation Inhibition Assay of Cell Lines
1. […] 2. Dosing to the cells: on the second day of the experiment, the microplate was taken out from the incubator, and 10 μL of 10× compound was added to each well of the microplate, setting 2 duplicate wells for each drug concentration and 9 dosing concentrations for each compound. According to different cell lines, the initial concentration of each compound was different. Upon completion of addition, the microplate was placed under the conditions of 37° C. and 5% CO2 for 72 hours. 3. Data acquisition: the microplate was taken out from the incubator and was allowed to equilibrate at room temperature for 30 minutes. 100 μL of CellTiter-Glo® Luminescent Cell Viability Assay reaction solution which had been equilibrated at room temperature was added to each well, and the reaction solution was shaken at 1300 rpm for 2 minutes at room temperature. After that, the microplate was placed in HERAEUS Multifuge X1R centrifuge, centrifuged at 2000 rpm for 1 minute, and allowed to equilibrate at room temperature for 10 minutes. The fluorescence signal value was measured on EnVision™.

[2] = test system: N87 (human gastric cancer cell NCI-N87); assay: In vitro proliferation inhibition assay of cell lines (CellTiter-Glo), N87; type: cell-based; conditions: N87 cells, 72 hours
Procedure: as §5
1. Cell culture and inoculation: on the first day of the experiment, normal cultured cells were taken, and in the exponential growth state, after digestion and dispersion, the cell density was then adjusted to 8.8×10^4 cells/mL for BT-474, and 6.6×10^4 cells/mL for N87, and 90 μL of which were inoculated to each well of a 96-well cell culture plate; after the inoculation was completed, the microplate was cultured under the conditions of 37° C. and 5% CO2 overnight. 2. Dosing to the cells: on the second day of the experiment, the microplate was taken out from the incubator, and 10 μL of 10× compound was added to each well of the microplate, setting 2 duplicate wells for each drug concentration and 9 dosing concentrations for each compound. According to different cell lines, the initial concentration of each compound was different. Upon completion of addition, the microplate was placed under the conditions of 37° C. and 5% CO2 for 72 hours. 3. Data acquisition: the microplate was taken out from the incubator and was allowed to equilibrate at room temperature for 30 minutes. 100 μL of CellTiter-Glo® Luminescent Cell Viability Assay reaction solution which had been equilibrated at room temperature was added to each well, and the reaction solution was shaken at 1300 rpm for 2 minutes at room temperature. After that, the microplate was placed in HERAEUS Multifuge X1R centrifuge, centrifuged at 2000 rpm for 1 minute, and allowed to equilibrate at room temperature for 10 minutes. The fluorescence signal value was measured on EnVision™.

EGFR kinase = EGFR kinase (Homo sapiens, UniProt P00533); assay: EGFR/ErbB2 enzymatic experiment (HTRF kinEASE-TK), EGFR; type: biochemical; conditions: EGFR kinase 0.06 units/μL, ATP 1.65 μM; read-out: Kinase IC50 (nM) in vitro EGFR
Chain of EGFR kinase (P00533 25-1210): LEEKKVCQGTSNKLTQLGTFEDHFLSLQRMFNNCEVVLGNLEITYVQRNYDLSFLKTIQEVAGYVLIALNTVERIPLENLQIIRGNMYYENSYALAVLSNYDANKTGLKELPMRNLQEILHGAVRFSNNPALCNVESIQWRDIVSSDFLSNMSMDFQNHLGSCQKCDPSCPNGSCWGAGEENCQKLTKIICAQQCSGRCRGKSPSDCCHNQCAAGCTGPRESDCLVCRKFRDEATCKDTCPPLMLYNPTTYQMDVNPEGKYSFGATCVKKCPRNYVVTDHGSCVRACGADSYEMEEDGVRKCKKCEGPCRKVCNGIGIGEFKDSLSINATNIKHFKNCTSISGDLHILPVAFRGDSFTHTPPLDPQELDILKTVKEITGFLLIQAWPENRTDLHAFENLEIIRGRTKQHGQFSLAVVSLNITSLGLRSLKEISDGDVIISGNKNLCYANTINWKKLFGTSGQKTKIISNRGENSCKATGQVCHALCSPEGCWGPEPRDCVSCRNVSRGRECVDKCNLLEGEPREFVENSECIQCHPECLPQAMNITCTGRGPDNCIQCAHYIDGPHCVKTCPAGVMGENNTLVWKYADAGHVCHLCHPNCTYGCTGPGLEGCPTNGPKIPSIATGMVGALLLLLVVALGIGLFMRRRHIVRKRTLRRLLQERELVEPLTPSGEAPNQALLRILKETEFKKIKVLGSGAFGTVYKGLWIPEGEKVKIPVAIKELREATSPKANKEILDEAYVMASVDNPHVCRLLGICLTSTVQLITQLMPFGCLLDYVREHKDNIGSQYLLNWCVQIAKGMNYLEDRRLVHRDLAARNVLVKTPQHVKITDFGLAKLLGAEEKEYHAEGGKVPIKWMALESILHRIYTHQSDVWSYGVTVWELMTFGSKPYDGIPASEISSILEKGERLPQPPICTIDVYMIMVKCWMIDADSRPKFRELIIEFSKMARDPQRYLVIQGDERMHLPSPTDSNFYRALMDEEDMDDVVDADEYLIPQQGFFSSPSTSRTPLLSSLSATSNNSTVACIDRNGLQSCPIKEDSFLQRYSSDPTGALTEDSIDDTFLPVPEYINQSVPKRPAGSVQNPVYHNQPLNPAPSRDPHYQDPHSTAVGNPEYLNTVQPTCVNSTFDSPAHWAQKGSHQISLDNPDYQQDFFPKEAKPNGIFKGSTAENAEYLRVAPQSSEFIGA
Procedure: as §3, §4

CYP3A4 = target: T3, CYP3A4 (Homo sapiens, UniProt P08684); assay: Direct inhibition (DI) of CYP3A4 in human liver microsomes; type: in vitro ADME; conditions: human liver microsomes 0.2 mg/mL, 10 μM compound
T3 construct: A system of 100 μL human liver microsomes; from tissue; host or cells: human liver microsomes
T3 sequence (P08684 whole entry): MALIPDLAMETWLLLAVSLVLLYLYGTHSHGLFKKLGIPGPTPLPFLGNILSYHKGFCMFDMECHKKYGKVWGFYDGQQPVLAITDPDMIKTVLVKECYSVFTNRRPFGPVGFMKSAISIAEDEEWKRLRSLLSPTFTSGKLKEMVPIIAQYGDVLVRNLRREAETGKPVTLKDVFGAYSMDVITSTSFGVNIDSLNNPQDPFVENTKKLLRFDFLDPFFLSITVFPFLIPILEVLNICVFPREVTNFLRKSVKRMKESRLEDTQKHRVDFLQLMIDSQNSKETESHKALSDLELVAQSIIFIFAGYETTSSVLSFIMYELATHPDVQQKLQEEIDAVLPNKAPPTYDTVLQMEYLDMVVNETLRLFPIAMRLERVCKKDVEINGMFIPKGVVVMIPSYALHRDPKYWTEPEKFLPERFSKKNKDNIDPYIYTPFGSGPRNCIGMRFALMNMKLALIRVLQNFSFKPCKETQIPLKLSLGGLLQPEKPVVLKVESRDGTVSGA
Procedure: as §1, §2

CYP1A2 = target: T4, CYP1A2 (Homo sapiens, UniProt P05177); assay: Direct inhibition (DI) of CYP1A2 in human liver microsomes; type: in vitro ADME; conditions: probe Phenacetin, human liver microsomes 0.2 mg/mL, 10 μM compound, read-out: Direct inhibition (DI) 1A2 (Phenacetin)
T4 construct: A system of 100 μL human liver microsomes; from tissue; host or cells: human liver microsomes
T4 sequence (P05177 1-516): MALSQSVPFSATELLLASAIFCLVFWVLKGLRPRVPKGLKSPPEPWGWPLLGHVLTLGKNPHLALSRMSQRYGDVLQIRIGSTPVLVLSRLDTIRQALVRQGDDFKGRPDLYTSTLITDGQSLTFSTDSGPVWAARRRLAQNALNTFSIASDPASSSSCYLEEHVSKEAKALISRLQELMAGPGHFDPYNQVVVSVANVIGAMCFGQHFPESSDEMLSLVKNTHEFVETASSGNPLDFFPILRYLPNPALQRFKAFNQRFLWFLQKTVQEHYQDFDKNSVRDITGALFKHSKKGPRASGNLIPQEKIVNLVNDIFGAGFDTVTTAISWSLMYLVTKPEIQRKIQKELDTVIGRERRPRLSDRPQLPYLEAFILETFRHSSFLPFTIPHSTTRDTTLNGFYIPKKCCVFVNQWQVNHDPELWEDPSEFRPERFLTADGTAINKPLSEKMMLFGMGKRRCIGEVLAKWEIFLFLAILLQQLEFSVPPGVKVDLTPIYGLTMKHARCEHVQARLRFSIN
Procedure: as §1, §2

CYP2C9 = target: T5, CYP2C9 (Homo sapiens, UniProt P11712); assay: Direct inhibition (DI) of CYP2C9 in human liver microsomes; type: in vitro ADME; conditions: probe Diclofenac, human liver microsomes 0.2 mg/mL, 10 μM compound, read-out: Direct inhibition (DI) 2C9 (Diclofenac)
T5 construct: A system of 100 μL human liver microsomes; from tissue; host or cells: human liver microsomes
T5 sequence (P11712 whole entry): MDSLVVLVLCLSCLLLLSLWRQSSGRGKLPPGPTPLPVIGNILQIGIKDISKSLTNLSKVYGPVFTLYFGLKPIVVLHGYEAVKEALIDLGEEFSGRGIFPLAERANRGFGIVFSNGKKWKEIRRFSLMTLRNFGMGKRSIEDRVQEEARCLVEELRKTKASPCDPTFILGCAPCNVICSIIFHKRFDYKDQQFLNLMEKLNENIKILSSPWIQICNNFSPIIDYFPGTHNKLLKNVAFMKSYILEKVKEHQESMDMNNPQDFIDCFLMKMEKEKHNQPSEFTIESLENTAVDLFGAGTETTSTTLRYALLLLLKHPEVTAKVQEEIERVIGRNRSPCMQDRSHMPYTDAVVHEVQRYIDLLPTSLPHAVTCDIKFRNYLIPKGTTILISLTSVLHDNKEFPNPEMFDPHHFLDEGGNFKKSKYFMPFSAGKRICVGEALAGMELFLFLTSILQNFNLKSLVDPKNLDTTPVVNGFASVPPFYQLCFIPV
Procedure: as §1, §2

CYP2C19 = target: T6, CYP2C19 (Homo sapiens, UniProt P33261); assay: Direct inhibition (DI) of CYP2C19 in human liver microsomes; type: in vitro ADME; conditions: probe Mephenytoin, human liver microsomes 0.2 mg/mL, 10 μM compound, read-out: Direct inhibition (DI) 2C19 (Mephenytoin)
T6 construct: A system of 100 μL human liver microsomes; from tissue; host or cells: human liver microsomes
T6 sequence (P33261 whole entry): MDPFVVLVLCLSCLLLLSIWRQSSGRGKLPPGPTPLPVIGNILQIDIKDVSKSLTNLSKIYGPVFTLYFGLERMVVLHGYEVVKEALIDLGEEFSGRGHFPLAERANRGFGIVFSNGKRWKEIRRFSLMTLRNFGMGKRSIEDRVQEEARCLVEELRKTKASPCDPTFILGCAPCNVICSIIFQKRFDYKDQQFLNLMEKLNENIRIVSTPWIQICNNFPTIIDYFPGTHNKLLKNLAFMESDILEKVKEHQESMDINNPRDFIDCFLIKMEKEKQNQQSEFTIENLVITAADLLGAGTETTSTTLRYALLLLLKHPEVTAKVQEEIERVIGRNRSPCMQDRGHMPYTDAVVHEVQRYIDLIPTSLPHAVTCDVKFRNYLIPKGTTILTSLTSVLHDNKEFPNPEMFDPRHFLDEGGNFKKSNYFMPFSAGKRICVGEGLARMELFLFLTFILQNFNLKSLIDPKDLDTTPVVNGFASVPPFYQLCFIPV
Procedure: as §1, §2

[3] = probe Midazolam, read-out: Direct inhibition (DI) 3A4 (Midazolam)
[4] = probe Testosterone, read-out: Direct inhibition (DI) 3A4 (testosterone)

| SMILES | inhibition at 20 min, 10 µM (CYP2D6) | IC50 (ErbB2 kinase) | IC50 [1] | IC50 [2] | IC50 (EGFR kinase) | inhibition at 20 min, 10 µM (CYP3A4; [3]) | inhibition at 20 min, 10 µM (CYP3A4; [4]) | inhibition at 20 min, 10 µM (CYP1A2) | inhibition at 20 min, 10 µM (CYP2C9) | inhibition at 20 min, 10 µM (CYP2C19) |
| --- | --- | --- | --- | --- | --- | --- | --- | --- | --- | --- |
| Cc1cc(Nc2ncnc3ccc(NC(=O)/C=C/[C@H]4CCCN4C)cc23)ccc1Oc1ccn2ncnc2c1 [Final product of Embodiment 20, (R,E)-N-(4-((4-([1,2,4]triazolo[1,5-a]pyridin-7-yloxy)-3-methylphenyl)amino)quinazolin-6-yl)-3-(1-methylpyrrolidin-2-yl)acrylamide] | 61% | 0.584 nM | 3.23 nM | 2.07 nM | 3.93 nM | 0% | 14% | 6% | < 0% | 7% |
| Cc1cc(Nc2ncnc3ccc(NC(=O)/C=C/[C@H]4CCCN4)cc23)ccc1Oc1ccn2ncnc2c1 [Final product of Embodiment 19, (R,E)-N-(4-((4-([1,2,4]triazolo[1,5-a]pyridin-7-yloxy)-3-methylphenyl)amino)quinazolin-6-yl)-3-(pyrrolidin-2-yl)acrylamide] | 60% | 0.716 nM | 26 nM | 28.4 nM | 3.97 nM | 16% | 38% | 7% | < 0% | < 0% |
| Cc1cc(Nc2ncnc3ccc(NC(=O)/C=C/[C@H]4CCCN4C)cc23)ccc1Oc1ccn2ncnc2n1 [Final product of Embodiment 12, (R,E)-N-(4-((4-([1,2,4]triazolo[1,5-a]pyrimidin-5-yloxy)-3-methylphenyl)amino)quinazolin-6-yl)-3-(1-methylpyrrolidin-2-yl)-acrylamide] | 77% | 0.99 nM | 4.01 nM | 4.19 nM | 0.42 nM | < 0% | 4% | 2% | 5% | 13% |
| C=CC(=O)N[C@@H]1CCCN(c2ccc3ncnc(Nc4ccc(Oc5cc6nncn6cn5)c(C)c4)c3c2)C1 [Final product of Embodiment 3, (R)—N-(1-(4-((4-([1,2,4]triazolo[4,3-c]pyrimidin-7-yloxy)-3-methylphenyl)amino)quinazolin-6-yl)piperidin-3-yl) acrylamide] | 4% | 3.83 nM | 15.3 nM | 15.6 nM | 24.3 nM | 54% | 61% | 14% | 26% | 9% |
| CCOc1cc2ncc(C#N)c(Nc3ccc(Oc4cc5nncn5cn4)c(C)c3)c2cc1NC(=O)/C=C/[C@H]1CCCN1C [Final product of Embodiment 33] | 3% | 3.56 nM | 4.2 nM | 3.2 nM | 2.14 nM | 10% | 17% | < 0% | 17% | 49% |

More lines, now with the values ahead:

| inhibition at 20 min, 10 µM (CYP2D6) | IC50 (ErbB2 kinase) | IC50 [1] | IC50 [2] | IC50 (EGFR kinase) | inhibition at 20 min, 10 µM (CYP3A4; [3]) | inhibition at 20 min, 10 µM (CYP3A4; [4]) | inhibition at 20 min, 10 µM (CYP1A2) | inhibition at 20 min, 10 µM (CYP2C9) | inhibition at 20 min, 10 µM (CYP2C19) | SMILES |
| --- | --- | --- | --- | --- | --- | --- | --- | --- | --- | --- |
| 54% | 4.2 nM | 7.1 nM | 3.8 nM | 38.5 nM | 33% | 42% | 35% | 34% | 47% | CCOc1cc2ncnc(Nc3ccc(Oc4ccn5ncnc5c4)c(C)c3)c2cc1NC(=O)/C(F)=C/[C@@H]1CCCN1C [Final product of Embodiment 47] |
| 71% | 0.6 nM | 3.9 nM | 8.5 nM | 0.6 nM | < 0% | 6% | < 0% | < 0% | 1% | Cc1cc(Nc2ncnc3ccc(NC(=O)/C=C/[C@H]4CCCN4C)cc23)ccc1Oc1cc2nccn2cn1 [Final product of Embodiment 41] |
| 16% |  |  |  |  | 3% | 9% | < 0% | < 0% | 18% | Cc1cc(Nc2ncnc3ccc(NC(=O)/C(F)=C\[C@H]4CCCN4C)cc23)ccc1Oc1ccn2ncnc2c1 [Final product of Embodiment 40] |
